In patent US9586994B2, “CD44V6-derived peptides for treating breast cancer” (KARLSRUHER INSTITUT FÜR TECHNOLOGIE, priority 2012, dated 2017):
“Also recorded” adds a separate entry of the source. Read-outs that look alike come from different tables or passages of the source. No end group written: not given here.

Tests used:
murine 4T1 cells = experiment: Syngeneic orthotopic 4T1 mammary carcinoma model in BALB/c mice; assay type: in vivo, mouse
Protocol: FIG. 27: Treatment with the v6 14mer reduces growth of the primary tumor and macroscopic metastases formation in the lung. 1×10^6 murine 4T1 cells per mouse were diluted in 50 μl RPMI plus 50 μl Matrigel and injected into the […] mammary fat pad of 10 female BALB/c mice. One week after the injection, the mice were either injected intraperitoneally with 20 μg of the murine v6 14mer dissolved in 100 μl PBS or with 20 μg of control peptide (rat v6 14mer) dissolved in 100 μl PBS. The injection was performed 3 times per week for two weeks. After 2 weeks the mice were sacrificed and the primary tumors and the lungs were extracted. A: Overall reduction of the tumor volume in the v6 peptide treated group B: Immunofluorescent staining for the endothelial marker CD34 to monitor vascularization of the primary tumor. Graphic representation of the reduction of the total vessel area. C: The v6 peptides led to a reduction in macroscopic lung metastasis. The black arrows mark examples for metastases. The scale bar corresponds to a size of 1 cm. Statistical evaluation of the average number of lung metastases. Significance was calculated using Student's t test: p*<0.01; **p<0.005. Each group consisted of 5 animals.
All animals were handled according to German regulations for animal experimentation. The animal experiments were approved by the Regierungspräsidium Karlsruhe (35-9185.81/G-83/04). All mice were obtained from Harlan. 1×10^6 murine 4T1 cells (diluted in either […] of control peptide or […] of CD44v6 peptide (peptides of SEQ ID No.: 6 were tested) in PBS) were orthotopically injected into the mammary fat pad of female BALB/c mice. In succession, 5 of the mice were injected intraperitoneally with a CD44v6-peptide (20 μg per mouse) (peptides of SEQ ID No.: 6 were tested) and 5 of the mice were injected with an unspecific control peptide (20 μg per mouse) three times a week. After four weeks, the mice were sacrificed and the tumors as well as the lung and lymph nodes of the animals were extracted. These organs were then fixed in 4% Formalin, processed and embedded in paraffin. […]

Met = conditions: N and E of the pentapeptide changed to A, Matzke et al., Cancer Res. (2005), cited from earlier work
CD44v6 = experiment: HGF-induced activation of Met and ERK in L3.6pl cells (Western blot); assay type: cell-based, human; conditions: peptide before induction with 10 ng/ml HGF
Protocol: Serum-starved cells (24 hours) were induced with the growth factor HGF (10 ng/mL) at 37° C. for 5 minutes. Where indicated, the cells were treated with peptides (100 ng/ml) prior to induction at 37° C. for 10 minutes (100 ng/mL CD44v6 peptide or control peptide). Following the induction with HGF, cells were washed with ice-cold phosphate-buffered saline (PBS). To detect activated Met and ERK, cells were lysed in sodium dodecyl sulfate (SDS)—sample buffer containing 100 mM dithiothreitol (DTT), boiled and subjected to western blot analysis using antibodies against phospho-Met and ERK. The loading controls were performed on the same blot after stripping (62.5 mM Tris, pH 6.8, 2% SDS, 0.8% DTT) by probing with the Met respectively Erk antibody. Blots were stained using the enhanced chemiluminescence system (Thermo Fisher Scientific, Schwerte, Germany). Bands in western blot analysis were quantified with the program Image J (National Institutes of Health).
To expand the studies to human pancreatic tumors, the highly metastatic human pancreatic carcinoma cells L3.6pl (Bruns, et al. Neoplasia (1999), 1(1):50-62) were investigated. These cells originate from the […] cells that have been passaged several times in the liver and the pancreas, a step that rendered them more and more metastatic. It was confirmed that Met is dependent on CD44v6 for its activation and signaling in these cells (FIG. 19A). The L3.6pl cells were treated with HGF in the presence or absence of a human v6 peptide of SEQ ID NO: 2 or SEQ ID NO:6 and Met activation and downstream signaling to ERK was measured. Phosphorylation of both Met and ERK was inhibited by the human v6 peptide. Treatment with a corresponding rat v6 peptide (ctrl peptide, SEQ ID NO: 10 or 11) had no influence on receptor activation and signal transduction (FIG. 19A).
The contribution of CD44v6 to Met signaling in the human epithelial pancreatic cancer cells L3.6pl (derived from Colo 357), the cervix carcinoma cells HeLa and the colon cancer cells HT29 were analysed using the CD44v6 peptide (v6 14mer; v6 5mer tested as well, data not shown).

BSp73ASs6 cells = experiment: Rat syngeneic model, subcutaneous BSp73ASs6 tumors, treatment from one week (metastasis formation); assay type: in vivo; conditions: rats, s.c. BSp73ASs6
Protocol: In the case of the rat syngeneic model, 1×10^6 pancreatic cells (BSp73AS and its transfectants) were subcutaneously injected into the right posterior flank of the animals. Tumors developed for four weeks. During this time period animals injected with BSp73ASs6 cells expressing Met-shRNA or control-shRNA received doxycycline in the drinking water. At the end of the experiment, primary tumors were isolated. Lungs and axillary lymph nodes were analyzed. The tissues were incubated for 24 h in a zinc-fixative (0.5 g calcium acetate, 5.0 g zinc acetate, 5.0 g zinc chloride, in 1 L 0.1 M Tris pH 7.4) and embedded in paraffin for further analysis. In case of peptide or antibody treatment tumors developed for one week before the first treatment. Where indicated, animals received 200 μg of peptide or antibody per injection three times per week for four weeks. Tumor growth was monitored weekly using a caliper Animals were killed at day 28 or 30 after start of the treatment.
For histomorphological analysis paraffin-embedded sections of lungs were stained with hematoxylin and eosin and periodic acid-Schiff (H&E or PAS). Serial sections of the whole tissue blocks were examined by analyzing slices every 20 μm; in each slice, the presence and the extension of the metastatic deposit was assessed, according to the procedure routinely used by pathologists to evaluate the presence of micrometastases.
Rat peptides had the sequences KEKWFENEWQGKNP (SEQ ID NO: 10) and NEWQG (SEQ ID NO: 11). BSp73ASs6 cells were subcutaneously injected into syngeneic rats and rat CD44v6 peptides of SEQ ID NO: 10 or SEQ ID NO: 11 (or mouse control peptides) or the CD44v6 antibody (or IgGs as a control) were injected intra-tumoral or intravenously three times a week. […] This is compatible with the fact that also BSp73AS cells or BSp73ASv1-10Δv6 cells can induce the formation of primary tumors similarly to the v6 transfectants.

L3.6pl cells = experiment: Human orthotopic pancreatic cancer model, L3.6pl cells in nude mice, treatment from day 7; assay type: in vivo, mouse; conditions: nude mice, orthotopic L3.6pl; 20 μg i.p. three times per week; listed as rat-specific peptide
Protocol: In the case of the human orthotopic model, L3.6pl pancreatic carcinoma cells (passage 24-26) were suspended in Hank's balanced salt solution (Invitrogen, Karlsruhe, Germany) after trypsinization. The cells were injected orthotopically in the pancreas of male nude mice as described (Bruns C J et al. (1999) Neoplasia 1(1):50-62). Two groups of 15 mice each were injected i.p. 7 days later with either the human v6 peptide respectively rat control peptide (20 μg). For all experiments described and depicted herein either the rat 14mer control peptide or the human 14mer peptide were used. All experiments were then repeated with the rat 5mer control peptide or the human 5mer peptide (N-R-W-H-E, SEQ ID NO: 2). […] The injection was repeated three times per week for 21 days. Two days after the last treatment the animals were killed.
7 μm thick paraffin sections were deparaffinized and rehydrated. For P-Met staining antigen unmasking was achieved by boiling the slides in 1 mM EDTA pH 8.0 followed by incubation for 15 minutes at a sub-boiling temperature, for CD31 staining the sections were treated with Proteinase K (8 μg/ml) for […] at 37° C. For immunofluorescence staining of P-Met, unspecific binding was blocked with 5% goat serum (DAKO, Glostrup, Denmark) (diluted in 1×PBS/0.3% Triton X-100) for 60 minutes. In the case of immunohistochemistry, endogenous peroxidases were at first blocked with 3% H2O2 in PBS followed by incubation with biotin blocking system (Dako, Glostrup, Denmark) and then unspecific binding was inhibited by incubation with 5% FCS in PBS was used for blocking. The sections were incubated with the P-Met antibody (D26, dilution 1:50 in 1×PBS/1% BSA/0.3% Triton X-100), Met antibody (C-28, dilution 1:50), GFP antibody (sc-101525, dilution 1:50) or CD31 antibody (5 μg/ml) over night or VFF18 (5 μg/ml) o/n at 4° C. After washing in PBS the sections were incubated with Alexa Fluor R 546 goat anti-rabbit (in case of immunofluorescence P-Met and Met staining, dilution 1:500) or a biotinylated secondary antibody (for immunohistochemical stainings rabbit anti-rat antibody for VFF18 and CD31, goat anti-rabbit for P-Met, cleaved Caspase-3 and cleaved Caspase-8 and rabbit anti-mouse for GFP, dilution 1:500) for 45 minutes. For DAB staining the sections were treated with a streptavidin-peroxidase conjugate (Dako, Glostrup, Denmark) and developed with DAB (3,3′-diaminobenzidine) substrate system (3,3′-diaminobenzidine; Biozol, Eching, Germany) For immunofluorescence DAPI was used for nuclear staining.
To test the effect of the peptide on tumor growth and metastasis formation the L3.6pl cells were orthotopically injected into the pancreas of immunosuppressed mice (NCI-nu). […] The primary tumor expresses a high amount of CD44v6 (FIG. 19B). […] Indeed, human HGF in a concentration of 3375 pg/ml was detected in the supernatant (see Material and Methods) after 5 days of culture (data not shown).

BSp73ASs6 tumors = conditions: rat
Text: To avoid autofluorescence of fur, rats were shaved around the tumor prior to imaging. Subsequently, animals were anesthetized using 2% isoflurane and gently fixed on the devices' heated plate for the entire time of data acquisition. To reduce fluorescence background, rats were fed with chlorophyll-reduced food (Provimi Kliba AG, Kaiseraugst, Switzerland) for one week prior NIRF imaging. All in vivo analyses were preceded by native scans of animals without any injection of the fluorescent probe. For in vivo analysis, rats were injected with 200 μg DY681-labeled rat v6 11 mer peptide or the human v6 11 mer peptide via the tail vein. Controls were injected with the equal amount of DY681-labeled mouse v6 11mer peptide. […] All peptides were labeled with the fluorescent dye DY681. Data were acquired at the indicated time after injection of the peptides. […]
DY681 fluorescence was measured using excitation at 670 nm in combination with a 700 nm long-pass emission filter. […] Data sets were analyzed with OptiView (ART).
For in vivo experiments, BSp73ASs6 cells were injected subcutaneously into syngeneic rats. […] The accumulation of the fluorescence was measured in the tumor region by Optix MX2 at the indicated time points. […] Then, in vivo binding kinetics of the Dy681-labeled v6 peptides to the subcutaneous tumors were determined. […]

## v6 14mer: murine v6 14mer per FIG. 27 legend; no sequence printed; b173 and b212 say SEQ ID NO: 6 (KEQWFGNRWHEGYR)
Murine 4T1 cells; BALB/c mice, 4T1, 20 μg i.p. 3 times per week for two weeks
  Total number of blood vessels in the primary tumor (anti-CD34 staining): significantly reduced
Murine 4T1 cells; BALB/c mice, 4T1 in mammary fat pad, 20 μg i.p. 3 times per week for two weeks, 5 animals per group
  Size of the primary tumor: significant decrease of tumor size
Murine 4T1 cells; macroscopic analysis of the lungs, 5 animals per group
  Macroscopic lung metastases per animal: three animals showed no macroscopic metastases at all, whereas two animals had only one metastase

## A-R-W-H-A (ARWHA) [SEQ ID NO: 3]
Met
  CD44v6 mediated activation of Met: still active in inhibiting CD44v6 mediated activation of Met
Met; listed as SEQ ID NO:3
  CD44v6 mediated activation of Met: capable of abrogating Met activation

## KEKWFENEWQGKNP [SEQ ID NO: 10, rat CD44v6 14mer; control peptide in human models]
CD44v6
  HGF-induced phosphorylation/activation of ERK: no influence
  HGF-induced phosphorylation/activation of Met: no influence
BSp73ASs6 cells; 200 μg per injection i.t. or i.v., three times a week, four weeks, start after one week
  Metastasis (axillary lymph nodes and lungs): completely inhibited metastasis
BSp73ASs6 cells; 200 μg three times a week
  Metastasis and micro-metastasis in lung sections (PAS and H&E histology): no metastasis nor micro-metastasis could be detected
BSp73ASs6 cells; treatment for 28 days
  Outgrowth of primary tumors: not influenced
L3.6pl cells
  Metastasis formation (liver): neither influence on metastasis formation; also recorded: no influence on metastasis formation
  Outgrowth of the primary tumor in the pancreas: no influence on metastasis formation or on growth of the primary tumor

## WFQNGWQGKNP (also: DY681 fluorescent dye label) [mv6 pep Dy681, reference compound]
BSp73ASs6 tumors
  Ex vivo fluorescence in excised tumors and lungs: not in tumors and lungs
